The results in this text go back to patent US20230295152A1 (SENDA BIOSCIENCES, INC., priority 2019, published 2023).

A short description of data set [1]: Plasma Protein Binding with Ultracentrifugation Method, human. The class given is in vitro ADME. Conditions: for fraction unbound at 30 min, 1 μM: human plasma, read-out: Human plasma protein binding (% bound); for fraction unbound at 5.5 h, 1 μM: human, plasma, read-out: Plasma Protein Binding PPB (h) % (converted). How it is done: The frozen plasma (stored at −80° C.) was thawed in a 37° C. water bath, followed by centrifugation at 3,220 g for 10 minutes to remove clots. The supernatant was removed into a new tube as the spun plasma. The spun plasma was pre-warmed in a 37° C. water bath for 10 minutes. The stock solutions of test compounds were diluted to 200 μM in DMSO, and then spiked into the plasma. Duplicate samples were prepared. The final concentration of compound was 1.0 μM. The final concentration of organic solvent was 0.5%. Warfarin was used as positive control in the assay. 1.0 mL of the spiked plasma was transferred to a new balance ultracentrifuge tube. Samples were incubated at 37° C., 5% CO2 for 30 minutes. After incubation, the balance ultracentrifuge tubes were centrifuged at 600,000 g for 5.5 hours at 37° C. After centrifugation, 50 μL solution was removed from the center of the ultracentrifuge tubes as the post-ultracentrifugation samples, followed by the addition of 50 μL blank plasma and 400 μL quench solution (acetonitrile containing internal standards (IS, 100 nM Alprazolam, 500 nM Labetalol and 2 μM Ketoprofen)) to precipitate protein and release compounds. Samples were vortexed for 2 minutes, followed by centrifugation at 20,000 g for 15 minutes at room temperature. The supernatant was diluted with ultrapure water and then used for LC-MS/MS analysis. Stability samples was prepared by transferring 50 μL of the spiked plasma to 0.6 mL tubes and incubated at 37° C., 5% CO2 for 0.5 and 6 hours. After incubation, 50 μL PBS (100 mM, pH7.4) and 400 μL quench solution were added to the stability samples. And then stability samples were treated the same way as the post-ultracentrifugation samples. The supernatant was diluted with ultrapure water and then used for LC-MS/MS analysis. 0.5 hour time point samples were also used as no-spun controls. Time 0 samples were prepared by transferring 50 μL spiked plasma to 0.6 mL tubes containing 50 μL PBS, followed by the addition of 400 μL quench solution to precipitate protein and release compound. And then these samples were treated the same way as the post-ultracentrifugation samples. The supernatant was diluted with ultrapure water and then used for LC-MS/MS analysis.
Data Analysis: All calculations were carried out using Microsoft Excel. The concentrations of test compound in plasma samples and post-ultracentrifugation plasma was determined from peak areas. The percentages of test compound bound was calculated as follows: […]
“+++” indicates a % bound value less than 50, “++” indicates a % bound value between 50 and 75, and “+” indicates a % bound value above 75.

The next data set addresses T1, hERG channels (Homo sapiens, UniProt Q12809).
T1 construct: host or cells: HEK 293
Kind of data set: hERG Inhibition Assay, patch clamp in hERG stably expressed HEK 293 cell line. Conditions: read-out: hERG channel: IC50. The class given is cell-based. How it is done: hERG stably expressed HEK 293 cell line (Cat #K1236) was purchased from Invitrogen. The cells are cultured in 85% DMEM, 10% dialyzed FBS, 0.1 mM NEAA, 25 mM HEPES, 100 U/mL Penicillin-Streptomycin and 5 μg/mL Blasticidin and 400 μg/mL Geneticin. Cells are split using TrypLE™ Express about three times a week and maintained between ˜40% to ˜80% confluence. Before the assay, the cells were onto the coverslips at 5×10^5 cells/per 6 cm cell culture dish and induced with doxycycline at 1 μg/mL for 48 hours.
External solution (in mM): 132 NaCl, 4 KCl, 3 CaCl2), 0.5 MgCl2, 11.1 glucose, and 10 HEPES (pH adjusted to 7.35 with NaOH). Internal solution (in mM): 140 KCl, 2 MgCl2, 10 EGTA, 10 HEPES and 5 MgATP (pH adjusted to 7.35 with KOH). Working solution preparation for test compound: test compounds were initially prepared in DMSO with final concentration of 10 mM as stock solution. Stock solution of each compound was serial-diluted by ratio of 1:3 with DMSO to prepare additional 3 intermediate solutions including 3.33, 1.11 and 0.37 mM.
Before performing the hERG assay, the working solutions were prepared by dilution of 10, 3.33, 1.11, and 0.37 mM intermediate solutions in 1000 folds using extracellular solution, while 30 μM working solution was prepared by 333.333-folds dilution of 10 mM DMSO stock. so that the final concentration of working solution was 30, 10, 3.33, 1.11 and 0.37 μM. The final DMSO concentration in working solutions was maintained in range of 0.1-0.3% (v/v).
Experimental procedure: the coverslip was removed from the cell culture dish and placed it on the microscope stage in bath chamber. A desirable cell was located using the ×10 objective. The tip of the electrode was located under the microscope using the ×10 objective by focusing above the plane of the cells. Once the tip was in focus, the electrode was advanced downwards towards the cell using the coarse controls of the manipulator, while simultaneously moving the objective to keep the tip in focus. When directly over the cell, the fine controls of the manipulator were used to approach the surface of the cell in small steps, by using the ×40 objective. Gentle suction was applied through the side-port of the electrode holder to form a gigaohm seal.
Cfast was used to remove the capacity current that is in coincidence with the voltage step. The whole cell configuration was obtained by applying repetitive, brief, strong suction until the membrane patch has ruptured. membrane potential was set to −60 mV at this point to ensure that hERG channels were not open. The spikes of capacity current was then cancelled using the Cslow on the amplifier.
Holding potential was set to −90 mV for 500 ms; current was recorder at 20 kHz and filtered at 10 kHz. Leaking current was tested at −80 mV for 500 ms.
The hERG current was elicited by depolarizing at +30 mV for 4.8 seconds and then the voltage was taken back to −50 mV for 5.2 seconds to remove the inactivation and observe the deactivating tail current. The maximum amount of tail current size was used to determine hERG current amplitude. Current was recorded for 120 seconds to assess current stability. Only stable cells with recording parameters above threshold were proceeded with further drug administrations. Vehicle control was applied to the cells to establish the baseline. […] For dose response testing, 5 doses of test compound was applied to the cells cumulatively from low to high concentrations. In order to ensure the good performance of cultured cells and operations, the positive control, Dofetilide, with 5 doses was also used to test the same batch of cells.
The following criteria were used to determine data acceptability: initial seal resistance>1 GΩ; leak currents<50% of the control peak tail currents at any time; the peak tail amplitude>300 pA; membrane resistance Rm>500 MΩ; access resistance (Ra)<15 MΩ; apparent run-down of peak current<2.5% per min. […]

T1 sequence (Q12809 whole entry): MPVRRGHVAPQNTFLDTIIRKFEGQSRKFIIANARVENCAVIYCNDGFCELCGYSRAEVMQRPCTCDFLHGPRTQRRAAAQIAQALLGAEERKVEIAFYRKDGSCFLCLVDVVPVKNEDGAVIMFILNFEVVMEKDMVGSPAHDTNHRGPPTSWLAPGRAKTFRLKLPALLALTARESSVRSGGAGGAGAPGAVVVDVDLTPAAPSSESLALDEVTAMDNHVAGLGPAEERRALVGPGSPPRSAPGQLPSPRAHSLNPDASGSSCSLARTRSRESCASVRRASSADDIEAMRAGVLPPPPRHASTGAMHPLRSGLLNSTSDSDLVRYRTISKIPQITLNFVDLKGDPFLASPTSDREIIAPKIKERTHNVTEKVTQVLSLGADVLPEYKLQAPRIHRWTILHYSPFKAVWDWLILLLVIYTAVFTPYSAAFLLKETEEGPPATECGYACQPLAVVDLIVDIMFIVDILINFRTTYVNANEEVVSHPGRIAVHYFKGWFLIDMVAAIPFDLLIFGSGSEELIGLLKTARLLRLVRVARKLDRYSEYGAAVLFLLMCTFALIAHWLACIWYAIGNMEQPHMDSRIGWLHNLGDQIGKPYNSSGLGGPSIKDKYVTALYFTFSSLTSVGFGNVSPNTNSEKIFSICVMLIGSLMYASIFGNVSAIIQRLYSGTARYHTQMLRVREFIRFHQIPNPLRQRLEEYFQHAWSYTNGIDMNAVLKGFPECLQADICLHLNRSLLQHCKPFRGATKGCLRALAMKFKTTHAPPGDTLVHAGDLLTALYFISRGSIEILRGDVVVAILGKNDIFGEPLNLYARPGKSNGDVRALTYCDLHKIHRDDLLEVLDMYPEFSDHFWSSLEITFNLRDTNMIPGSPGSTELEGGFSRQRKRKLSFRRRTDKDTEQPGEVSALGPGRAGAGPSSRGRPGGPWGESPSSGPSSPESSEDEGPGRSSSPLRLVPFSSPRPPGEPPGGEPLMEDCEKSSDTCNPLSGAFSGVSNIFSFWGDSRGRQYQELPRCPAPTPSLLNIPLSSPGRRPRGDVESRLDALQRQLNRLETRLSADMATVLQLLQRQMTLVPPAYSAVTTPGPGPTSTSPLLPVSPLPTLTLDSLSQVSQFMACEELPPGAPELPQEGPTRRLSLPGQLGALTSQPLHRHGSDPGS

On to `C[C@@H](CO)n1cnc2c(-c3cncc(F)c3)nc(-c3ccc(OC(F)(F)F)cc3)cc2c1=O` [Compound 1, (S)-8-(5-fluoropyridin-3-yl)-3-(1-hydroxypropan-2-yl)-6-(4-(trifluoromethoxy)phenyl)pyrido[3,4-d]pyrimidin-4(3H)-one], for which the fraction unbound at 30 min, 1 μM in data set [1] was under 0.25.
Take `C[C@@H](CO)n1cnc2c(-c3cccc(F)c3)nc(-c3ccc(Cl)cc3)cc2c1=O` [Compound 7]: the IC50 (as a rule, the concentration needed to halve the response being measured) at hERG channels is over 30 µM. The fraction unbound at 30 min, 1 μM in data set [1] was under 0.25.
Turning to `C[C@@H](CO)n1cnc2c(-c3cccc(F)c3)nc(-c3ccc(C(F)(F)F)nc3)cc2c1=O` [Compound 8], the fraction unbound at 30 min, 1 μM in data set [1] was under 0.25.
For the molecule `CC(C)(O)Cn1cnc2c(-c3cccnc3)nc(-c3ccc(C(F)(F)F)nc3)cc2c1=O` [Compound 9], the half-maximal inhibitory concentration (IC50) on hERG channels came out at 12.1 µM. Moreover, in data set [1], the fraction unbound at 30 min, 1 μM was under 0.25 and the fraction unbound at 5.5 h, 1 μM was 0.109.
Regarding `C[C@@H](CO)n1cnc2c(-c3cccnc3)nc(-c3ccc(C(F)(F)F)nc3)cc2c1=O` [Compound 12], on hERG channels, the IC50 is over 10 µM. The fraction unbound at 30 min, 1 μM in data set [1] is under 0.25.
In the case of `CC(C)(O)Cn1cnc2c(-c3cccnc3)nc(-c3ccc(C(F)(F)F)cc3)cc2c1=O` [Compound 16], on hERG channels, the 50% inhibitory concentration (IC50) turned out to be 4.31 µM. For the same molecule, the fraction unbound at 30 min, 1 μM in data set [1] is under 0.25.
`Cc1ccc(-c2cc3c(=O)n([C@@H](C)CO)cnc3c(-c3cccnc3)n2)cc1` [Compound 17, (S)-3-(1-hydroxypropan-2-yl)-8-(pyridin-3-yl)-6-(p-tolyl)pyrido[3,4-d]pyrimidin-4(3H)-one]: in data set [1], the fraction unbound at 30 min, 1 μM is under 0.25.
In the case of `CC(C)(O)Cn1cnc2c(-c3cccnc3)nc(-c3ccc(Cl)cc3)cc2c1=O` [Compound 18], at hERG channels, the IC50 amounted to 5.28 µM. The fraction unbound at 30 min, 1 μM in data set [1] is under 0.25.
On to `Cn1cc(-c2nc(-c3ccc(Cl)cc3)cc3c(=O)n(CC(C)(C)O)cnc23)cn1` [Compound 21], for which the fraction unbound at 30 min, 1 μM in data set [1] is under 0.25.
`C[C@@H](CO)n1cnc2c(-c3cccnc3)nc(-c3ccc(OC(F)(F)F)cc3)cc2c1=O` [Compound 22]: the fraction unbound at 30 min, 1 μM in data set [1] is under 0.25.
On to `C[C@@H](CO)n1cnc2c(-c3cnn(C)c3)nc(-c3ccc(Cl)cc3)cc2c1=O` [Compound 27], for which, on hERG channels, the IC50 was over 10 µM. Besides, in data set [1], the fraction unbound at 30 min, 1 μM is under 0.25.
Turning to `C[C@H](n1cnc2c(-c3cnn(C)c3)nc(-c3ccc(Cl)cc3)cc2c1=O)C(C)(C)O` [Compound 30], at hERG channels, the half-inhibitory concentration (IC50) was over 30 µM.
As for `C[C@@H](n1cnc2c(-c3cccnc3)nc(-c3ccc(Cl)cc3)cc2c1=O)C(C)(C)O` [Compound 33], the fraction unbound at 30 min, 1 μM in data set [1] was under 0.25.
In the case of `C[C@@H](CO)n1cnc2c(-n3ccnc3)nc(-c3ccc(OC(F)(F)F)cc3)cc2c1=O` [Compound 44, (S)-3-(1-hydroxypropan-2-yl)-8-(1H-imidazol-1-yl)-6-(4-(trifluoromethoxy)-phenyl)pyrido[3,4-d]pyrimidin-4(3H)-one], the fraction unbound at 30 min, 1 μM in data set [1] was under 0.25.
With `C[C@@H](CO)n1cnc2c(-c3cccnc3)nc(-c3ccc(C(F)(F)F)cn3)cc2c1=O` [Compound 46, (S)-3-(1-hydroxypropan-2-yl)-8-(pyridin-3-yl)-6-(5-(trifluoromethyl)pyridin-2-yl)pyrido[3,4-d]pyrimidin-4(3H)-one], the concentration for half-maximal inhibition (IC50) at hERG channels turned out to be 8.63 µM. In data set [1], the fraction unbound at 30 min, 1 μM was under 0.25 and the fraction unbound at 5.5 h, 1 μM was 0.108.
For `C[C@@H](CO)n1cnc2c(-c3cccc(F)c3)nc(-c3ccc(C(F)(F)F)cn3)cc2c1=O` [Compound 47, (S)-8-(3-fluorophenyl)-3-(1-hydroxypropan-2-yl)-6-(5-(trifluoromethyl)pyridin-2-yl)pyrido[3,4-d]pyrimidin-4(3H)-one], the fraction unbound at 30 min, 1 μM in data set [1] is under 0.25.
Consider `Cn1cc(-c2nc(-c3ccc(C(F)(F)F)nc3)cc3c(=O)n(CC(C)(C)O)cnc23)cn1` [Compound 60], for which the half-inhibitory concentration (IC50) at hERG channels is over 30 µM. Moreover, the fraction unbound at 30 min, 1 μM in data set [1] is under 0.25.
As for `C[C@@H](CO)n1cnc2c(-c3cnn(C)c3)nc(-c3ccc(C(F)(F)F)nc3)cc2c1=O` [Compound 68], the IC50 at hERG channels is over 30 µM. Also, the fraction unbound at 30 min, 1 μM in data set [1] is under 0.25.
In the case of `C[C@@H](CO)n1cnc2c(-c3cccnc3)nc(-c3ccc(C4CC4)nc3)cc2c1=O` [Compound 74], at hERG channels, the IC50 turned out to be 4.84 µM. Moreover, the fraction unbound at 30 min, 1 μM in data set [1] was under 0.25.
As for `O=c1c2cc(-c3ccc(C(F)(F)F)nc3)nc(-c3cccnc3)c2ncn1[C@@H]1COC[C@H]1O` [Compound 79], on hERG channels, the IC50 was over 30 µM. The fraction unbound at 30 min, 1 μM in data set [1] is under 0.25.
Take `Cn1cc(-c2nc(-c3ccc(C(F)(F)F)cn3)cc3c(=O)n(CC(C)(C)O)cnc23)cn1` [Compound 103, 3-(2-hydroxy-2-methylpropyl)-8-(1-methyl-1H-pyrazol-4-yl)-6-(5-(trifluoromethyl)pyridin-2-yl)pyrido[3,4-d]pyrimidin-4(3H)-one]: the concentration for half-maximal inhibition (IC50) on hERG channels is over 10 µM. Besides, the fraction unbound at 30 min, 1 μM in data set [1] was under 0.25.
Consider `CC(C)(O)Cn1cnc2c(-c3cccnc3)nc(-c3ccc(C(F)(F)F)cn3)cc2c1=O` [Compound 105], for which the IC50 at hERG channels came out at 11.8 µM. Further, in data set [1], the fraction unbound at 30 min, 1 μM is under 0.25.
As to `O=c1c2cc(-c3ccc(Cl)cc3)nc(-c3cccnc3)c2ncn1[C@H]1COC[C@@H]1O` [Compound 125, 6-(4-chlorophenyl)-3-((3S,4R)-4-hydroxytetrahydrofuran-3-yl)-8-(pyridin-3-yl)pyrido[3,4-d]pyrimidin-4(3H)-one], the IC50 at hERG channels was found to be 7.67 µM. The fraction unbound at 30 min, 1 μM in data set [1] was under 0.25.
On to `CC(C)(O)Cn1cnc2c(-n3ccnc3)nc(-c3ccc(C(F)(F)F)cn3)cc2c1=O` [Compound 160, 3-(2-hydroxy-2-methylpropyl)-8-(1H-imidazol-1-yl)-6-(5-(trifluoromethyl)pyridin-2-yl)pyrido[3,4-d]pyrimidin-4(3H)-one], for which, on hERG channels, the IC50 amounted to 11.5 µM.
